From patent US20230393170A1, “IN SITU MECHANICAL CHARACTERIZATION OF A SAMPLE STRAIN” (BOARD OF REGENTS OF THE UNIVERSITY OF NEBRASKA, priority 2020, published 2023)
“Also recorded” adds a separate entry of the source.

Test system: A431 cell pair cell-cell junction
Test: Displacement-controlled stretch test of a single cell pair treated with contractility modulators
Format: cell-based
Text: To apply strain to the cell-cell junction, the test platform was placed with deposited cells under the AFM integrated with an inverted microscope. An AFM probe with a through-hole drilled at the front end using a focused ion beam (FIB) is positioned above the micropillar on Island 2 and then lowered to capture it within the through-hole. With this, displacement was applied and displacement rates were tried to investigate the mechanical behavior of the cell-cell junction with obtained stress-strain curves (as discussed below with reference to FIG. 12).
The cell pair was treated with cellular contractility modulators, RhoA Activator I. CN01, and myosin II inhibitor: blebbistatin (Bleb), to examine the impact of actomyosin activity on the mechanical behavior of the cell pair under mechanical stress. Stress-strain curves collected at 0.5% s^−1 strain rate show a clear contrast between samples treated with CN01, Bleb, and DMSO control. […] The stress-strain curves were then analyzed using the constitutive model. […] The increase (decrease) in both η and E2 by CN01 (Bleb) is consistent with the enhanced (reduced) stress fiber formation.
Zyxin staining was performed to visualize the focal adhesion points between cells and the structure. After fixing the cells (see above), the anti-zyxin antibody (Sigma) with a ratio of 1:250 with PBS was added to the sample and refrigerated for 24 hours. The solution was then removed, and the sample was washed with PBS. PBS was replaced by Goat anti-Rabbit IgG (H+L), Superclonal™ Recombinant Secondary Antibody, Alexa Fluor 647 (Thermofisher) and incubated for 1 hour at 37° C. Finally, the sample was washed with PBS and the actin and nuclei staining protocol were performed. Pharmacological treatments modulating cell contractility included 3 μM blebbistatin (Bleb) (Sigma-Aldrich) for 2 h and 1 unit/ml Rho Activator I (CN01; Cytoskeleton, Inc., Denver, CO) for 30 min.
A modified version of MATLAB digital image correlation (DIC) was used to analyze the frames from the stretch test. The first frame was considered as the reference and the rest of the frames were compared to the reference frame to calculate the displacement of each island. A region of interest with markers within the region was defined for both islands. Then, the MATLAB code calculated the markers' new coordinates with respect to the first frame, from which the displacement of the islands was calculated. The force is defined by the Island 1 displacement multiplied by its stiffness, and the stress is acquired by dividing the force by the junction cross-section (approximately 120 μm^2). The strain is then calculated as the difference between the islands' displacements divided by the cell-cell junction's initial length (approximately 20 μm).
Each stretch test was recorded with a screen recorder software (Camtasia) and the movie was divided into frames that were analyzed with a customized DIC-based program to calculate each island's movement. In this method, a region of interest is defined and, within this region, a few markers are placed. The higher the number of markers, the better the resolution of the calculated displacement is. Then, when the coordinates of these markers change, a corresponding red marker appears (FIGS. 12A and 12B). In the first frame, both initial and displaced positions of markers are completely overlapped so just red markers are shown. […] The strain is calculated by dividing the difference of both islands' displacements by the initial length […]. […]

[1] = 0.5% s^-1 strain rate, fit of stress-strain curves

Compound: Cc1ccc2c(c1)C(=O)C1(O)CCN(c3ccccc3)C1=N2 (centres unmarked) [Bleb, blebbistatin]
- rupture of the cell-cell adhesion junction (0.5% s^-1 (100 nm/s) strain rate): ruptured at the initial stages
- overall stress level compared with controls (0.5% s^-1 strain rate (100 nm/s), CN01 1 unit/ml 30 min, Bleb 3 μM 2 h, vs DMSO control): reduces the stress accumulation; also recorded: stress level was low compared to other conditions
- Membrane stiffness, E1 (MSLS model fit) [1]: stays the same for all conditions
- elastic moduli of the intracellular components, E2 (MSLS model fit) [1]: reduces them
- viscosity, η (MSLS model fit) [1]: reduces them
